Results as given in PubChem BioAssay AID248 (DTP/NCI, 2004).
“And” between values parts separate entries of the source, which are not always exact repeats. Equal values may be shown once. Toxic doses and inconclusive results are not listed. Cut-off read from the data, not from the text of the source: active = T/C of 150% or more; inactive = T/C below 125%.

Tested on: L1210 leukemia ip in BDF1 mice, survival T/C
Assay: NCI In Vivo Anticancer Drug Screen. Data for tumor model L1210 Leukemia (intraperitoneal) in B6D2F1 (BDF1) mice
Conditions: higher = longer survival
Outline: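 Read-out is survival time, reported as the treated-group measurement over the vehicle-control measurement.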

Measured: T/C

C[n+]1ccc(Nc2ccc(NC(=O)c3ccc(Nc4cc[n+](C)c5ccc(N)cc45)cc3)cc2)cc1
active: endpoint: mean survival time, dose: 0.5 mg/kg/injection, schedule: Q01DX009 (sc), vehicle: water 151 % of control | endpoint: mean survival time, dose: 1.0 mg/kg/injection, schedule: Q01DX009 (sc), vehicle: Klucel (hydroxypropylcellulose) (HPC) 159 % of control | endpoint: mean survival time, dose: 2.0 mg/kg/injection, schedule: Q01DX009 (ip), vehicle: water 185 % of control and 204 % of control and 235 % of control | endpoint: mean survival time, dose: 2.0 mg/kg/injection, schedule: Q01DX009 (sc), vehicle: water 175 % of control | endpoint: mean survival time, dose: 4.0 mg/kg/injection, schedule: Q01DX009 (ip), vehicle: water 234 % of control and 267 % of control and 272 % of control | endpoint: mean survival time, dose: 4.0 mg/kg/injection, schedule: Q01DX009 (sc), vehicle: Klucel (hydroxypropylcellulose) (HPC) 200 % of control | endpoint: mean survival time, dose: 4.0 mg/kg/injection, schedule: Q01DX009 (sc), vehicle: water 205 % of control and 224 % of control | endpoint: mean survival time, dose: 8.0 mg/kg/injection, schedule: Q01DX009 (ip), vehicle: Klucel (hydroxypropylcellulose) (HPC) 215 % of control | endpoint: mean survival time, dose: 8.0 mg/kg/injection, schedule: Q01DX009 (ip), vehicle: water 175 % of control and 211 % of control and 252 % of control | endpoint: mean survival time, dose: 8.0 mg/kg/injection, schedule: Q01DX009 (sc), vehicle: water 190 % of control and 222 % of control | endpoint: mean survival time, dose: 12.5 mg/kg/injection, schedule: Q04DX003 (ip), vehicle: saline with Tween-80 247 % of control | endpoint: mean survival time, dose: 12.5 mg/kg/injection, schedule: Q04DX003 (ip), vehicle: saline 257 % of control | endpoint: mean survival time, dose: 16.0 mg/kg/injection, schedule: Q01DX009 (sc), vehicle: Klucel (hydroxypropylcellulose) (HPC) 176 % of control | endpoint: mean survival time, dose: 16.0 mg/kg/injection, schedule: Q01DX009 (sc), vehicle: water 155 % of control and 171 % of control | endpoint: mean survival time, dose: 25.0 mg/kg/injection, schedule: Q04DX003 (ip), vehicle: saline with Tween-80 269 % of control | endpoint: mean survival time, dose: 50.0 mg/kg/injection, schedule: Q04DX003 (ip), vehicle: saline with Tween-80 248 % of control | endpoint: mean survival time, dose: 50.0 mg/kg/injection, schedule: Q04DX003 (ip), vehicle: saline 253 % of control | endpoint: mean survival time, dose: 75.0 mg/kg/injection, schedule: Q04DX003 (ip), vehicle: saline 227 % of control | endpoint: median survival time, dose: 0.5 mg/kg/injection, schedule: Q03HX024 (ip), vehicle: water 150 % of control | endpoint: median survival time, dose: 1.0 mg/kg/injection, schedule: Q03HX016 (ip), vehicle: water 169 % of control | endpoint: median survival time, dose: 1.0 mg/kg/injection, schedule: Q03HX024 (ip), vehicle: water 169 % of control and 186 % of control | endpoint: median survival time, dose: 2.0 mg/kg/injection, schedule: Q01DX005 (ip), vehicle: water 179 % of control | endpoint: median survival time, dose: 2.0 mg/kg/injection, schedule: Q01DX009 (ip), vehicle: water 177 % of control and 224 % of control | endpoint: median survival time, dose: 2.0 mg/kg/injection, schedule: Q01DX009 (sc), vehicle: water 150 % of control | endpoint: median survival time, dose: 2.0 mg/kg/injection, schedule: Q03HX008 (ip), vehicle: water 169 % of control | endpoint: median survival time, dose: 2.0 mg/kg/injection, schedule: Q03HX016 (ip), vehicle: water 158 % of control and 213 % of control | endpoint: median survival time, dose: 2.0 mg/kg/injection, schedule: Q03HX024 (ip), vehicle: water 197 % of control | endpoint: median survival time, dose: 4.0 mg/kg/injection, schedule: Q01DX005 (ip), vehicle: water 195 % of control | endpoint: median survival time, dose: 4.0 mg/kg/injection, schedule: Q01DX009 (ip), vehicle: water 231 % of control | endpoint: median survival time, dose: 4.0 mg/kg/injection, schedule: Q01DX009 (sc), vehicle: water 183 % of control and 222 % of control | endpoint: median survival time, dose: 4.0 mg/kg/injection, schedule: Q03HX008 (ip), vehicle: water 202 % of control | endpoint: median survival time, dose: 4.0 mg/kg/injection, schedule: Q03HX016 (ip), vehicle: water 229 % of control and 261 % of control | endpoint: median survival time, dose: 4.0 mg/kg/injection, schedule: Q03HX024 (ip), vehicle: water 201 % of control and 247 % of control | endpoint: median survival time, dose: 8.0 mg/kg/injection, schedule: Q01DX005 (ip), vehicle: water 211 % of control | endpoint: median survival time, dose: 8.0 mg/kg/injection, schedule: Q01DX009 (sc), vehicle: water 178 % of control | endpoint: median survival time, dose: 8.0 mg/kg/injection, schedule: Q04DX003 (ip), vehicle: water 164 % of control | endpoint: median survival time, dose: 8.0 mg/kg/injection, schedule: Q08DX002 (ip), vehicle: water 153 % of control | endpoint: median survival time, dose: 32.0 mg/kg/injection, schedule: Q01DX001 (sc), vehicle: water 165 % of control | endpoint: median survival time, dose: 64.0 mg/kg/injection, schedule: Q01DX001 (sc), vehicle: water 192 % of control and 267 % of control
inactive: endpoint: mean survival time, dose: 0.5 mg/kg/injection, schedule: Q01DX009 (ip), vehicle: water 118 % of control | endpoint: mean survival time, dose: 1.0 mg/kg/injection, schedule: Q01DX009 (ip), vehicle: Klucel (hydroxypropylcellulose) (HPC) 112 % of control | endpoint: mean survival time, dose: 1.0 mg/kg/injection, schedule: Q01DX009 (sc), vehicle: water 110 % of control and 113 % of control | endpoint: mean survival time, dose: 2.0 mg/kg/injection, schedule: Q01DX009 (ip), vehicle: Klucel (hydroxypropylcellulose) (HPC) 107 % of control | endpoint: mean survival time, dose: 4.0 mg/kg/injection, schedule: Q01DX009 (ip), vehicle: Klucel (hydroxypropylcellulose) (HPC) 118 % of control | endpoint: mean survival time, dose: 10.0 mg/kg/injection, schedule: Q01DX009 (oral), vehicle: Klucel (hydroxypropylcellulose) (HPC) 104 % of control | endpoint: mean survival time, dose: 20.0 mg/kg/injection, schedule: Q01DX009 (oral), vehicle: Klucel (hydroxypropylcellulose) (HPC) 105 % of control | endpoint: mean survival time, dose: 40.0 mg/kg/injection, schedule: Q01DX009 (oral), vehicle: Klucel (hydroxypropylcellulose) (HPC) 100 % of control | endpoint: mean survival time, dose: 80.0 mg/kg/injection, schedule: Q01DX009 (oral), vehicle: Klucel (hydroxypropylcellulose) (HPC) 105 % of control | endpoint: mean survival time, dose: 160.0 mg/kg/injection, schedule: Q01DX009 (oral), vehicle: Klucel (hydroxypropylcellulose) (HPC) 101 % of control | endpoint: median survival time, dose: 0.25 mg/kg/injection, schedule: Q03HX008 (ip), vehicle: water 103 % of control and 121 % of control | endpoint: median survival time, dose: 0.25 mg/kg/injection, schedule: Q03HX016 (ip), vehicle: water 107 % of control and 116 % of control | endpoint: median survival time, dose: 0.25 mg/kg/injection, schedule: Q03HX024 (ip), vehicle: water 112 % of control and 116 % of control | endpoint: median survival time, dose: 0.5 mg/kg/injection, schedule: Q01DX005 (ip), vehicle: water 102 % of control and 124 % of control | endpoint: median survival time, dose: 0.5 mg/kg/injection, schedule: Q01DX009 (ip), vehicle: water 112 % of control and 122 % of control | endpoint: median survival time, dose: 0.5 mg/kg/injection, schedule: Q01DX009 (sc), vehicle: water 96 % of control and 100 % of control | endpoint: median survival time, dose: 0.5 mg/kg/injection, schedule: Q03HX008 (ip), vehicle: water 112 % of control | endpoint: median survival time, dose: 0.5 mg/kg/injection, schedule: Q03HX016 (ip), vehicle: water 119 % of control | endpoint: median survival time, dose: 1.0 mg/kg/injection, schedule: Q01DX005 (ip), vehicle: water 117 % of control | endpoint: median survival time, dose: 1.0 mg/kg/injection, schedule: Q01DX009 (sc), vehicle: water 101 % of control and 111 % of control | endpoint: median survival time, dose: 2.0 mg/kg/injection, schedule: Q01DX001 (sc), vehicle: water 97 % of control and 98 % of control | endpoint: median survival time, dose: 2.0 mg/kg/injection, schedule: Q04DX003 (ip), vehicle: water 114 % of control and 121 % of control | endpoint: median survival time, dose: 2.0 mg/kg/injection, schedule: Q08DX002 (ip), vehicle: water 110 % of control and 113 % of control | endpoint: median survival time, dose: 4.0 mg/kg/injection, schedule: Q01DX001 (ip), vehicle: water 110 % of control | endpoint: median survival time, dose: 4.0 mg/kg/injection, schedule: Q01DX001 (sc), vehicle: water 95 % of control and 105 % of control | endpoint: median survival time, dose: 4.0 mg/kg/injection, schedule: Q04DX003 (ip), vehicle: water 124 % of control | endpoint: median survival time, dose: 4.0 mg/kg/injection, schedule: Q08DX002 (ip), vehicle: water 116 % of control and 124 % of control | endpoint: median survival time, dose: 8.0 mg/kg/injection, schedule: Q01DX001 (ip), vehicle: water 121 % of control | endpoint: median survival time, dose: 8.0 mg/kg/injection, schedule: Q01DX001 (sc), vehicle: water 105 % of control and 113 % of control | endpoint: median survival time, dose: 16.0 mg/kg/injection, schedule: Q01DX001 (sc), vehicle: water 105 % of control | endpoint: median survival time, dose: 16.0 mg/kg/injection, schedule: Q01DX009 (sc), vehicle: water 95 % of control

O=S1(=O)C2C=CCC1C(O)CC2 (stereo not drawn)
inactive: endpoint: mean survival time, dose: 100.0 mg/kg/injection, schedule: Q01DX009 (ip), vehicle: saline 101 % of control | endpoint: mean survival time, dose: 200.0 mg/kg/injection, schedule: Q01DX009 (ip), vehicle: saline 99 % of control | endpoint: mean survival time, dose: 400.0 mg/kg/injection, schedule: Q01DX009 (ip), vehicle: saline 101 % of control
